Data taken from EP4813384A1, “COMBINED PHARMACEUTICAL PREPARATION OF TAFAMIDIS OR PHARMACEUTICALLY ACCEPTABLE SALT THEREOF AND PROLINE HYDROXYLASE INHIBITOR” (Huaya Jiyuan (Shenzhen) Pharmaceutical Co., Ltd., priority 2024, dated 2025).

Assays:
HIF-2α = biological target: T1, HIF-2α (Homo sapiens, UniProt Q99814); test: Luciferase reporter gene assay (HRE-driven luciferase in stably transfected 786-O cells); type: cell-based; details: 786-O HRE-Luc cells, 24 hours, relative to blank control
T1 construct: 786-O is a renal carcinoma cell line that predominantly expresses HIF-2α; endogenous in cells; host or cells: 786-O cells stably transfected with HRE-driven luciferase reporter
T1 sequence (Q99814 whole entry): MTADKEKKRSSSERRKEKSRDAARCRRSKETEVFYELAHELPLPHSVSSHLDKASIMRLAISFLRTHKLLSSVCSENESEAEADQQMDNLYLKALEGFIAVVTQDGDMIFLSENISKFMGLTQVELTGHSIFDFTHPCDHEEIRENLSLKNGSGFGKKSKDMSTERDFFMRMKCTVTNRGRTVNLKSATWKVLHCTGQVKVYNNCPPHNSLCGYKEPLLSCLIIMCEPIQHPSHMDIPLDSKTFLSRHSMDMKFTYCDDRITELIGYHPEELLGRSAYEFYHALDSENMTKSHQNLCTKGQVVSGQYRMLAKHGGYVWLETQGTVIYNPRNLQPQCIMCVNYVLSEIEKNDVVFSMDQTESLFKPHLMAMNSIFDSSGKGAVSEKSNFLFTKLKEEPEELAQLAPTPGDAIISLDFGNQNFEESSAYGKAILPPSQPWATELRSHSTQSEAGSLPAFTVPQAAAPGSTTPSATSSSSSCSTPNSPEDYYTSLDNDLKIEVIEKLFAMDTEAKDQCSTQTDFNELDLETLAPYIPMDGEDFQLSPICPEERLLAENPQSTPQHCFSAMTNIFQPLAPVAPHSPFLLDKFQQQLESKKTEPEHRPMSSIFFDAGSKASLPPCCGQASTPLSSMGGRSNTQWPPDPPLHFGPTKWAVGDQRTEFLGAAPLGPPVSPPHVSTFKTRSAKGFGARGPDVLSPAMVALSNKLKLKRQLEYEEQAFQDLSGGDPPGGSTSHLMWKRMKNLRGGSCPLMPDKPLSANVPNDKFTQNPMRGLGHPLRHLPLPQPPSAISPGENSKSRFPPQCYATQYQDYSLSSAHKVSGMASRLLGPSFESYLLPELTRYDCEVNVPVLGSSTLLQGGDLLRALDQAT
T1 sequence (P27540 whole entry partner): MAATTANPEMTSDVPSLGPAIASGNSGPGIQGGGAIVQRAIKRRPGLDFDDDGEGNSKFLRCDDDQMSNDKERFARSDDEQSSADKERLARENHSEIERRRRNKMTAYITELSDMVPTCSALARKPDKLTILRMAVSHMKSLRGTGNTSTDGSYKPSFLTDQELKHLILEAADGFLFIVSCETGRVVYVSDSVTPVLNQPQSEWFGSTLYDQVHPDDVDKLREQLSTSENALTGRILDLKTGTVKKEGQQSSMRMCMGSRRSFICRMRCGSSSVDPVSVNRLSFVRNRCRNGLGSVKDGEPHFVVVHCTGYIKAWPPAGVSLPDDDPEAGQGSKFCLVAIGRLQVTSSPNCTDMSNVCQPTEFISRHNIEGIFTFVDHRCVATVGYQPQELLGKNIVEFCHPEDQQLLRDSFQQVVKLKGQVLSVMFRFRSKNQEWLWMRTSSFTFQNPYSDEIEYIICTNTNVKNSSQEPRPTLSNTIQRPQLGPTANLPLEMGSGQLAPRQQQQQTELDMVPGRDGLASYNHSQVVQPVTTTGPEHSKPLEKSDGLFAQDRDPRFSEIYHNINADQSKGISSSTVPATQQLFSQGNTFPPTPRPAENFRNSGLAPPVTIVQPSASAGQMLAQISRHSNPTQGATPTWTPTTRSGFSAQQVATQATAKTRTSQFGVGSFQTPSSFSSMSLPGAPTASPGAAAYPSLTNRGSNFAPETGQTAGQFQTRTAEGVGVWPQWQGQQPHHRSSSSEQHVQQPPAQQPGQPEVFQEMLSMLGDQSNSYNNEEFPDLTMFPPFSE
Text: Experimental principles: 786-O is a renal carcinoma cell line that predominantly expresses HIF-2α and lacks functional HIF-1α. This characteristic makes 786-O cells an ideal model for studying HIF-2α transcriptional activity and related signaling pathways. In the luciferase reporter gene assay, a 786-O monoclonal cell line that stably expresses hypoxia response element (HRE)-driven luciferase (Luc) activity is obtained through puromycin selection. The HIF-2α agonist promotes dimerization of HIF-2α and HIF-β, and activates an HRE promoter. By measuring fluorescence intensity, luciferase activity can be determined, thereby assessing the ability of the HIF-2α agonist to promote transcription.
Experimental method: A total of 6000 stably transfected 786-O cells stably containing HRE and Luc sequences are seeded in each well of a 96-well plate, and 100 µL of RPMI-1640 culture medium containing 10% fetal bovine serum is added to each well. After 24 hours, a compound at a corresponding concentration is added to each well. A blank group is set as a control. Only a DMSO solvent is added in the well of the blank group. For initial compound screening, both tafamidis and tafamidis meglumine are tested at two concentrations: 2 µM and 20 µM. For concentration-gradient determination, each concentration is tested in triplicate. After co-incubation for 24 hours, the culture medium is discarded, and 20 µL of firefly luciferase reporter gene cell lysis buffer (RG126M, Beyotime) is added to each well. The 96-well plate is shaken on a microplate shaker for 10 minutes. After shaking, 10 µL of lysate is transferred into a white opaque plate, and then 10 µL of Steady-Lumi™ firefly luciferase assay reagent (RG058S, Beyotime) is added to each well. Finally, luminescence is measured using a microplate reader (Agilent Synergy Neo2). E20 represents the effect of the compound at a 20 µM concentration, and is calculated as: E20 = fluorescence value of the 20 µM well ÷ fluorescence value of the blank control × 100%. E2 represents the effect of the compound at a 2 µM concentration, and is calculated as: E2 = fluorescence value of the 2 µM well ÷ fluorescence value of the blank control × 100%. EC50 is the compound concentration at which the agonistic efficacy is increased by 50% relative to the blank control. […] The maximum activation percentage (Emax) of an agonist refers to a ratio, expressed as a percentage, of the fluorescence value corresponding to the maximal effect (observed maximal response) induced when the agonist concentration reaches receptor-binding saturation in a particular receptor system, to the fluorescence value of the receptor system in the absence of agonist. […]

[1] = system: erythropoietin (EPO) gene expression; test: Real-time reverse transcription quantitative PCR (qRT-PCR) assay of EPO gene expression; type: cell-based; details: HepG2 cells, 24 hours, relative to vehicle
Procedure: Experimental method: HepG2 hepatocellular carcinoma cells are seeded into a 12-well plate. After 24 hours, 10 µM roxadustat, 1 µM tafamidis, 5 µM tafamidis, 10 µM tafamidis, and 20 µM tafamidis, a combination of 10 µM roxadustat and 1 µM tafamidis, a combination of 10 µM roxadustat and 5 µM tafamidis, a combination of 10 µM roxadustat and 10 µM tafamidis, and a combination of 10 µM roxadustat and 20 µM tafamidis, are added separately, and the cells are co-incubated with the compounds for 24 hours. No treatment is applied to the vehicle group. RNA is extracted using a TRIZOL reagent. cDNA transcription is performed using an All-in-one™ First-Strand cDNA Synthesis Kit (for specific operating procedures, see the manufacturer's instructions). A SYBR reagent is used for fluorescence signal detection, and GAPDH is used as an internal control. The qRT-PCR primers are as follows: • GAPDH_fwd, […]; • GAPDH_rev, TGGTGAAGACGCCAGTGGA; • EPO_fwd, […]; • EPO_rev, […].
The test results are shown in FIG. 2: relative to the vehicle (control group), monotherapy with 10 µM roxadustat upregulates erythropoietin (EPO) gene expression by 1.5-fold, while monotherapy with 20 µM tafamidis upregulates EPO gene expression by 1-fold. […] Such activation may have potential therapeutic value for treating diseases such as ischemic diseases or anemia. Statistical analysis is performed using SPSS software. […]

rats with renal anemia = test: Cisplatin-induced renal anemia rat model; type: in vivo, Male Sprague-Dawley (SD) rats; details: 5 mg/kg roxadustat
Procedure: Male Sprague-Dawley (SD) rats are allowed a one-week acclimation period, after which cisplatin (6 mg/kg) is administered through tail vein injection. A second injection is given one week later. Two weeks after the first administration, successful establishment of a renal disease model is confirmed by measuring serum creatinine and urea levels. The successfully modeled rats are randomly divided into three groups: cisplatin group (n = 6), 5 mg/kg roxadustat group (n = 6), and 5 mg/kg roxadustat + 10 mg/kg tafamidis group (n = 6), with continuous administration for 4 weeks. A solvent is administered to the normal control group (n = 7) and the cisplatin group based on the same drug administration regimen. After drug administration, blood analysis is performed once per week using a Mindray automated hematology analyzer (BC-5150). After sample collection, the rats are euthanized. Statistical significance is determined by one-way analysis of variance (ANOVA), and then a Dunnett's test is performed for comparison with the cisplatin group (*P < 0.05, **P < 0.01, ***P < 0.001).

| SMILES | agonistic efficacy at a 2 µM concentration (E2) (HIF-2α) [%] | agonistic efficacy at a 20 µM concentration (E20) (HIF-2α) [%] | upregulates EPO gene expression ([1]; 20 µM tafamidis monotherapy) [fold] | upregulates erythropoietin (EPO) gene expression ([1]; 10 µM roxadustat monotherapy) [fold] | Hematocrit (rats with renal anemia; Week 4, n = 6) [%] | Hemoglobin concentration (rats with renal anemia; Week 4, n = 6) [g/L] | Red blood cell count (rats with renal anemia; Week 4, n = 6) | kidneys appear red (gross observation of kidney tissues) (rats with renal anemia; group n = 6) [rats] |
| --- | --- | --- | --- | --- | --- | --- | --- | --- |
| O=C(O)c1ccc2nc(-c3cc(Cl)cc(Cl)c3)oc2c1 [tafamidis, 2-(3,5-dichlorophenyl)-1,3-benzoxazole-6-carboxylic acid] | 142 | 207 | 1 | – | – | – | – | – |
| Cc1nc(C(=O)NCC(=O)O)c(O)c2ccc(Oc3ccccc3)cc12 [roxadustat] | – | – | – | 1.5 | 52.2 ± 1.3 | 143.3 ± 4.1 | 7.03 ± 0.40 ×10^12 cells/L | 3 |
| O=C(O)c1ccc2nc(-c3cc(Cl)cc(Cl)c3)oc2c1 [tafamidis meglumine] | 122 | 223 | – | – | – | – | – | – |
